# Test results: patent publication US20130102593A1, “PYRROLIDINE COMPOUNDS WHICH INHIBIT BETA-SECRETASE ACTIVITY AND METHODS OF USE THEREOF” (priority 2008, published 2013)
# Tested on: Aβ production
# Assay: Cellular Aβ IC50 determination (memapsin 2 activity in a cellular assay of Aβ production)
# Format: cell-based, Chinese hamster
# Conditions: Cricetulus griseus; CHO cells over-expressing human APP695, Aβ40 ELISA; read-out: M2 IC50
# Method: The potency of compounds against memapsin 2 activity was determined in a cellular assay of Aβ production. […] Chinese hamster ovary cells that over-express human APP695 with the London and Swedish mutations were seeded in multi-well plates at 10% confluency. Compounds are dissolved in DMSO to concentrations near 1 mM, and diluted into culture media to a final concentration near 4 μM (final 0.4% DMSO). Compounds were diluted serially and applied to cells in multi-well plates 48 h after seeding. Incubation was continued in 5% CO2 at 37° C. for 24 h. Aliquots were removed and assayed for […] content using a sandwich ELISA (BioSource International). Amount of Aβ40 over the range of concentration of compounds, relative to control incubations, were fit to a 4-parameter IC50 model.
row,IC50 [nM],Compound
1,55.6,"Cc1csc([C@H]2CCCN2C(=O)c2cc(C(=O)N[C@@H](Cc3ccccc3)[C@H](O)[C@H]3C[C@@H](OCc4ccccc4)CN3)cc(-n3cccc3)c2)n1 [1-25, N-((1R,2S)-1-((2R,4R)-4-(benzyloxy)pyrrolidin-2-yl)-1-hydroxy-3-phenylpropan-2-yl)-3-((R)-2-(4-methylthiazol-2-yl)pyrrolidine-1-carbonyl)-5-(1H-pyrrol-1-yl)benzamide]"

# Same assay, conditions: Cricetulus griseus; Chinese hamster ovary cells over-expressing human APP695 with London and Swedish mutations, 24 h, Aβ40 sandwich ELISA; read-out: M2 IC50
row,Compound,IC50 [nM]
1,"Cc1csc(CN(C)C(=O)c2cc(C(=O)N[C@@H](Cc3ccccc3)[C@H](O)[C@H]3CCCN3)cc(-c3cnco3)c2)n1 [1-12, N1-((1R,2S)-1-hydroxy-3-phenyl-1-((R)-pyrrolidin-2-yl)propan-2-yl)-N3-methyl-N3-((4-methylthiazol-2-yl)methyl)-5-(oxazol-5-yl)isophthalamide]",> 1000
2,"Cc1csc(CN(C)C(=O)c2cc(C(=O)N[C@@H](Cc3ccccc3)[C@H](O)[C@H]3CCCN3)cc(-n3cccc3)c2)n1 [1-13, N1-((1R,2S)-1-hydroxy-3-phenyl-1-((R)-pyrrolidin-2-yl)propan-2-yl)-N3-methyl-N3-((4-methylthiazol-2-yl)methyl)-5-(1H-pyrrol-1-yl)isophthalamide]",500 to 1000
3,"Cc1csc(CN(C)C(=O)c2cc(C(=O)N[C@@H](Cc3ccccc3)[C@H](O)[C@H]3CCCN3)cc(-c3ncco3)c2)n1 [1-15, N1-((1R,2S)-1-hydroxy-3-phenyl-1-((R)-pyrrolidin-2-yl)propan-2-yl)-N3-methyl-N3-((4-methylthiazol-2-yl)methyl)-5-(oxazol-2-yl)isophthalamide]",< 500
4,"Cc1coc([C@H]2CCCN2C(=O)c2cc(C(=O)N[C@@H](Cc3ccccc3)[C@H](O)[C@H]3CCCN3)cc(-c3cnccn3)c2)n1 [1-21, N-((1R,2S)-1-hydroxy-3-phenyl-1-((R)-pyrrolidin-2-yl)propan-2-yl)-3-((R)-2-(4-methyloxazol-2-yl)pyrrolidine-1-carbonyl)-5-(pyrazin-2-yl)benzamide]",< 500
5,"Cc1csc([C@H]2CCCN2C(=O)c2cccc(C(=O)N[C@@H](Cc3ccccc3)[C@H](O)[C@H]3C[C@@H](OCc4ccccc4)CN3)c2)n1 [1-22, N-((1R,2S)-1-((2R,4R)-4-(benzyloxy)pyrrolidin-2-yl)-1-hydroxy-3-phenylpropan-2-yl)-3-((R)-2-(4-methylthiazol-2-yl)pyrrolidine-1-carbonyl)benzamide]",< 500
6,"Cc1coc([C@H]2CCCN2C(=O)c2cc(C(=O)N[C@@H](Cc3ccccc3)[C@H](O)[C@H]3CCCN3)cc(-c3ccccn3)c2)n1 [1-24, N-((1R,2S)-1-hydroxy-3-phenyl-1-((R)-pyrrolidin-2-yl)propan-2-yl)-3-((R)-2-(4-methyloxazol-2-yl)pyrrolidine-1-carbonyl)-5-(pyridin-2-yl)benzamide]",< 500
7,"Cc1csc([C@H]2CCCN2C(=O)c2cc(C(=O)N[C@@H](Cc3ccccc3)[C@H](O)[C@H]3C[C@@H](OCc4ccccc4)CN3)cc(-n3cccc3)c2)n1 [1-25, N-((1R,2S)-1-((2R,4R)-4-(benzyloxy)pyrrolidin-2-yl)-1-hydroxy-3-phenylpropan-2-yl)-3-((R)-2-(4-methylthiazol-2-yl)pyrrolidine-1-carbonyl)-5-(1H-pyrrol-1-yl)benzamide]",< 500
8,"Cc1csc(CN(C)C(=O)c2cc(C(=O)N[C@@H](Cc3ccccc3)[C@H](O)[C@H]3CCCN3)cc(N(C)S(C)(=O)=O)c2)n1 [1-27, N1-((1R,2S)-1-hydroxy-3-phenyl-1-((R)-pyrrolidin-2-yl)propan-2-yl)-N3-methyl-5-(N-methylmethylsulfonamido)-N3-((4-methylthiazol-2-yl)methyl)isophthalamide]",< 500
9,"Cc1csc([C@H]2CCCN2C(=O)c2cc(CF)cc(C(=O)N[C@@H](Cc3ccccc3)[C@H](O)[C@H]3C[C@@H](OCc4ccccc4)CN3)c2)n1 [1-36, N-((1R,2S)-1-((2R,4R)-4-(benzyloxy)pyrrolidin-2-yl)-1-hydroxy-3-phenylpropan-2-yl)-3-(fluoromethyl)-5-((R)-2-(4-methylthiazol-2-yl)pyrrolidine-1-carbonyl)benzamide]",< 500
10,"Cc1csc(CN(C)C(=O)c2cccc(C(=O)N[C@@H](Cc3cc(F)cc(F)c3)[C@H](O)[C@H]3CCCN3)c2)n1 [1-41, N1-((1R,2S)-3-(3,5-difluorophenyl)-1-hydroxy-1-((R)-pyrrolidin-2-yl)propan-2-yl)-N3-methyl-N3-((4-methylthiazol-2-yl)methyl)isophthalamide]",> 1000

# The remaining lines, values ahead:
row,IC50 [nM],Compound
1,< 500,"Cc1csc([C@H]2CCCN2C(=O)c2cc(C(=O)N[C@@H](Cc3ccccc3)[C@H](O)[C@H]3CCCN3)cc(C(F)F)c2)n1 [1-14, 3-(difluoromethyl)-N-((1R,2S)-1-hydroxy-3-phenyl-1-((R)-pyrrolidin-2-yl)propan-2-yl)-5-((R)-2-(4-methylthiazol-2-yl)pyrrolidine-1-carbonyl)benzamide]"
2,500 to 1000,"Cc1csc([C@H]2CCCN2C(=O)c2cc(C(=O)N[C@@H](Cc3ccccc3)[C@H](O)[C@H]3CCCN3)cc(-n3cccc3)c2)n1 [1-16, N1-((1R,2S)-1-hydroxy-3-phenyl-1-((R)-pyrrolidin-2-yl)propan-2-yl)-3-((R)-2-(4-methylthiazol-2-yl)pyrrolidine-1-carbonyl)-5-(1H-pyrrol-1-yl)benzamide]"
3,< 500,"Cc1coc([C@H]2CCCN2C(=O)c2cc(C(=O)N[C@@H](Cc3ccccc3)[C@H](O)[C@H]3CCCN3)cc(-c3ncco3)c2)n1 [1-17, N-((1R,2S)-1-hydroxy-3-phenyl-1-((R)-pyrrolidin-2-yl)propan-2-yl)-3-((R)-2-(4-methyloxazol-2-yl)pyrrolidine-1-carbonyl)-5-(oxazol-2-yl)benzamide]"
4,< 500,"Cc1csc([C@H]2CCCN2C(=O)c2cc(C(=O)N[C@@H](Cc3ccccc3)[C@H](O)[C@H]3CCCN3)cc(-c3ncco3)c2)n1 [1-19, N-((1R,2S)-1-hydroxy-3-phenyl-1-((R)-pyrrolidin-2-yl)propan-2-yl)-3-((R)-2-(4-methylthiazol-2-yl)pyrrolidine-1-carbonyl)-5-(oxazol-2-yl)benzamide]"
5,< 500,"Cc1csc([C@H]2CCCN2C(=O)c2cc(C(=O)N[C@@H](Cc3ccccc3)[C@H](O)[C@H]3CCCN3)cc(-c3cnccn3)c2)n1 [1-20, N-((1R,2S)-1-hydroxy-3-phenyl-1-((R)-pyrrolidin-2-yl)propan-2-yl)-3-((R)-2-(4-methylthiazol-2-yl)pyrrolidine-1-carbonyl)-5-(pyrazin-2-yl)benzamide]"
6,< 500,"Cc1csc([C@H]2CCCN2C(=O)c2cc(C(=O)N[C@@H](Cc3ccccc3)[C@H](O)[C@H]3CCCN3)cc(N(C)S(C)(=O)=O)c2)n1 [1-23, N-((1R,2S)-1-hydroxy-3-phenyl-1-((R)-pyrrolidin-2-yl)propan-2-yl)-3-(N-methylmethylsulfonamido)-5-((R)-2-(4-methylthiazol-2-yl)pyrrolidine-1-carbonyl)benzamide]"
7,> 1000,"Cc1csc([C@H]2CCCN2C(=O)c2cc(F)cc(C(=O)N[C@@H](Cc3ccccc3)[C@H](O)[C@H]3CCCN3)c2)n1 [1-32, 3-fluoro-N-((1R,2S)-1-hydroxy-3-phenyl-1-((R)-pyrrolidin-2-yl)propan-2-yl)-5-((R)-2-(4-methylthiazol-2-yl)pyrrolidine-1-carbonyl)benzamide]"
8,> 1000,"Cc1csc([C@H]2CCCN2C(=O)c2cc(C(=O)N[C@@H](Cc3ccccc3)[C@H](O)[C@H]3CCCN3)cc(N3CCOCC3)c2)n1 [1-33, N-((1R,2S)-1-hydroxy-3-phenyl-1-((R)-pyrrolidin-2-yl)propan-2-yl)-3-((R)-2-(4-methylthiazol-2-yl)pyrrolidine-1-carbonyl)-5-morpholinobenzamide]"
9,> 1000,"COc1cc(C(=O)N[C@@H](Cc2ccccc2)[C@H](O)[C@H]2CCCN2)cc(C(=O)N2CCC[C@@H]2c2nc(C)cs2)c1 [1-34, N-((1R,2S)-1-hydroxy-3-phenyl-1-((R)-pyrrolidin-2-yl)propan-2-yl)-3-methoxy-5-((R)-2-(4-methylthiazol-2-yl)pyrrolidine-1-carbonyl)benzamide]"
10,< 500,"Cc1csc([C@H]2CCCN2C(=O)c2cc(C(=O)N[C@@H](Cc3ccccc3)[C@H](O)[C@H]3CCCN3)cc(N3CCCC3=O)c2)n1 [1-39, N-((1R,2S)-1-hydroxy-3-phenyl-1-((R)-pyrrolidin-2-yl)propan-2-yl)-3-((R)-2-(4-methylthiazol-2-yl)pyrrolidine-1-carbonyl)-5-(2-oxopyrrolidin-1-yl)benzamide]"
11,500 to 1000,"Cc1csc([C@H]2CCCN2C(=O)c2cccc(C(=O)N[C@@H](Cc3ccccc3)[C@H](O)[C@H]3CCCN3)c2)n1 [1-40, N-((1R,2S)-1-hydroxy-3-phenyl-1-((R)-pyrrolidin-2-yl)propan-2-yl)-3-((R)-2-(4-methylthiazol-2-yl)pyrrolidine-1-carbonyl)benzamide]"
12,> 1000,"Cc1csc([C@H]2CCCN2C(=O)c2cc(C(=O)N[C@@H](Cc3ccccc3)[C@H](O)[C@H]3CCCN3)cc(N(C)C)c2)n1 [1-42, 3-(dimethylamino)-N-((1R,2S)-1-hydroxy-3-phenyl-1-((R)-pyrrolidin-2-yl)propan-2-yl)-5-((R)-2-(4-methylthiazol-2-yl)pyrrolidine-1-carbonyl)benzamide]"
13,> 1000,"Cc1csc([C@H]2CCCN2C(=O)c2cc(C(=O)N[C@@H](Cc3ccccc3)[C@H](O)[C@H]3CCCN3)cc(-c3cccc(C(F)(F)F)c3)c2)n1 [1-43, N-((1R,2S)-1-hydroxy-3-phenyl-1-((R)-pyrrolidin-2-yl)propan-2-yl)-5-((R)-2-(4-methylthiazol-2-yl)pyrrolidine-1-carbonyl)-3′-(trifluoromethyl)biphenyl-3-carboxamide]"
14,500 to 1000,"Cc1csc([C@H]2CCCN2C(=O)c2cccc(C(=O)N[C@@H](Cc3cc(F)cc(F)c3)[C@H](O)[C@H]3CCCN3)c2)n1 [1-44, N-((1R,2S)-3-(3,5-difluorophenyl)-1-hydroxy-1-((R)-pyrrolidin-2-yl)propan-2-yl)-3-((R)-2-(4-methylthiazol-2-yl)pyrrolidine-1-carbonyl)benzamide]"
